System: pentosidine
Test: Pentosidine production inhibiting effect with BSA and arabinose
Type: biochemical
Settings: BSA and arabinose instead of plasma
Experimental: Fresh heparinized plasma samples were obtained after informed consent from hemodialysis patients prior to the dialysis session, and filtrated and sterilized. To the plasma (450 μL), there was added the solution of TM-2002 in dimethylsurphoxide (50 μL) (final concentration: 0.8, 2.0, 5.0 mM) incubated at 37° C. for one week. Then, the amount of pentosidine was measured.
Measurement of the amount of pentosidine was made as follows: to each incubated sample (50 μL) was added an equal volume of 10% trichloroacetic acid, followed by centrifugation at 5000 g for 5 minutes; after removal of the supernatant, the pellet was washed by 5% trichloroacetic acid (300 μL); the pellet was dried under reduced pressure and then subjected to hydrolysis in 6N HCl solution (100 μL) at 110° C. under nitrogen atmosphere for 16 hours; to the hydrolysate, 5N NaOH (100 μL) and 0.5 M phosphate buffer (pH 7.4) (200 μL) were added, followed by filtration through a porefilter with a pore size of 0.5 μm and dilution with PBS. The concentration of free pentosidine was determined by reversed-phase HPLC using a fluorescence detector (Miyata, T. et al.: Proc. Natl. Acad. Sci. USA, Vol. 93, p. 2353-2358, 1996). The effluent was monitored at 335/385 nm of excitation/emission wavelength. Synthetic pentosidine was used as the standard. The detection limit of pentosidine was 0.1 pmol/mg protein.
The plasma from patients was substituted to BSA and arabinose, and the pentosidine production inhibiting effect of another compounds (I) or (II) was measured in the same manner as [Test Examination 1]. Therein, “-” means that the examination was not carried out.

| SMILES | Pentosidine production rate in 5 mM of medicament (%) |
| --- | --- |
| CC1=NN(c2ccc(C)c(C)c2)C(=O)/C1=C\c1ccc(O)cc1O [compound 54, 4-(2,4-dihydroxy-benzylidene)-2-(3,4-dimethyl-phenyl)-5-methyl-2,4-dihydro-pyrazol-3-one] | 73.48% |
| CC1=NN(c2ccccc2)C(=O)C1(O)S(=O)(=O)[O-].[Na+] (centres unmarked) [compound 25, sodium; 4-hydroxy-3-methyl-5-oxo-1-phenyl-4,5-dihydro-1H-pyrazol-4-sulfonate] | 38.80% |
| CCCC1=NN(c2ccccc2)C(=O)C1CC(=O)c1ccccc1 (centres unmarked) [compound 20, 4-(2-oxo-2-phenyl-ethyl)-2-phenyl-5-propyl-2,4-dihydro-pyrazol-3-one] | 83.12% |
| CC1=NN(c2cccc(Cl)c2)C(=O)/C1=C/c1cc2ccccc2[nH]c1=O [compound 38, 3-[1-(3-chloro-phenyl)-3-methyl-5-oxo-1,5-dihydro-pyrazol-4-ylidene-methyl]-1H-quinolin-2-one] | 84.95% |
| CC1=NN(c2ccccc2)C(=O)/C1=C/c1ccc(O)cc1 [compound 70, 4-(4-hydroxy-benzylidene)-5-methyl-2-phenyl-2,4-dihydro-pyrazol-3-one] | 0.04% |
| CCOC(=O)c1ccc(N2N=C(C(F)(F)F)/C(=C/c3cccs3)C2=O)cc1 [compound 50, 4-(5-oxo-4-thiophene-2-yl-methylene-3-trifluoromethyl-4,5-dihydro-pyrazol-1-yl)-benzoic acid-ethyl ester] | 63.17% |
| CC1=NN(c2ccccc2)C(=O)C1C1C(=O)N(c2ccccc2)N=C1C (centres unmarked) [compound 17, 5,5′-dimethyl-2,2′-diphenyl-2,4,2′,4′-tetrahydro-[4,4′]-bipyrazol-3,3′-dione] | 60.96% |
| CCOc1cc(/C=C2/C(=O)N(c3ccccc3Cl)N=C2C)ccc1O [compound 31, 2-(2-chloro-phenyl)-4-(3-ethoxy-4-hydroxy-benzylidene)-5-methyl-2,4-dihydro-pyrazol-3-one] | 15.57% |
| CC(=O)c1ccc(N2N=C(C)/C(=C3\C(=O)Nc4ccccc43)C2=O)cc1 [compound 45, 3-[1-(4-acetyl-phenyl)-3-methyl-5-oxo-1,5-dihydro-pyrazol-4-ylidene]-1,3-dihydro-indol-2-one] | 19.22% |
| CC1=NN(c2ccccc2)C(=O)C1CCC(=O)O (centres unmarked) [compound 7, 3-(3-methyl-5-oxo-1-penyl-4,5-dihydro-1H-pyrazol-4-yl)-propionic acid] | 64.64% |
| CC1=NN(c2ccccc2)C(=O)/C1=C/c1ccc(OCc2ccccc2)cc1 [compound 72, 4-(4-benzyloxy-benzylidene)-5-methyl-2-phenyl-2,4-dihydropyrazol-3-one] | 7.63% |
| O=C(NC1=NN(c2ccccc2)C(=O)C1Sc1nnnn1-c1ccccc1)c1ccccc1 (centres unmarked) [compound 14, N-[5-oxo-1-phenyl-4-(1-phenyl-1H-tetrazol-5-yl-sulfanil)-4,5-dihydro-1H-pyrazol-3-yl]-benzamide] | 61.27% |
| O=C1/C(=C\c2ccc(O)cc2)C(C(F)(F)F)=NN1c1ccccc1 [compound 53, 4-(4-hydroxy-benzylidene)-2-phenyl-5-trifluoromethyl-2,4-dihydro-pyrazol-3-one] | 66.76% |
| CC1=NN(c2ccc(Cl)cc2)C(=O)/C1=C/c1ccc(O)cc1O [compound 42, 2-(4-chloro-phenyl)-4-(2,4-dihydroxy-benzylidene)-5-methyl-2,4-dihydro-pyrazol-3-one] | 68.32% |
| O=C(O)c1cccc(N2N=C(c3ccccc3)/C(=C/c3ccccc3O)C2=O)c1 [compound 37, 3-[4-(2-hydroxy-benzylidene)-5-oxo-3-phenyl-4,5-dihydro-pyrazol-1-yl]-benzoic acid] | 0.02% |
| CC1=NN(c2ccccc2)C(=O)/C1=C/c1ccc(Cl)cc1 [compound 67, 4-(4-chloro-benzylidene)-5-methyl-2-phenyl-2,4-dihydro-pyrazol-3-one] | 9.09% |

| SMILES | Pentosidine production rate in 5 mM of medicament (%) |
| --- | --- |
| CC1=NN(c2cccc(Cl)c2)C(=O)/C1=N/O [compound 73, 2-(3-chloro-phenyl)-5-methyl-2H-pyrazol-3,4-dione 4-oxym] | 66.42% |
| CC1=NN(c2cccc(F)c2)C(=O)/C1=C\c1ccc(N(C)C)cc1 [compound 35, 4-(4-dimethylamino-benzylidene)-2-(3-fluoro-phenyl)-5-methyl-2,4-dihydro-pyrazol-3-one] | 76.31% |
| CC1=NN(c2cccc(Cl)c2)C(=O)/C1=C/c1ccc(O)cc1 [compound 71, 2-(3-chloro-phenyl)-4-(4-hydroxy-benzylidene)-5-methyl-2,4-dihydropyrazol-3-one] | 4.63% |
| CC1=NN(c2ccc(Cl)cc2)C(=O)/C1=C/c1cccc(O)c1 [compound 43, 2-(4-chloro-phenyl)-4-(3-hydroxy-benzylidene)-5-methyl-2,4-dihydropyrazol-3-one] | 3.00% |
| COc1cc(/C=C2/C(=O)N(c3ccc(Cl)c(C(=O)O)c3)N=C2C)c(Cl)cc1O [compound 61, 2-chloro-5-[4-(2-chloro-4-hydroxy-5-methoxy-benzylidene)-3-methyl-5-oxo-4,5-dihydro-pyrazol-1-yl]-benzoic acid] | 46.25% |
| CC1=NN(c2ccc(F)cc2)C(=O)C1C(c1ccccc1O)c1c(C)nn(-c2ccc(F)cc2)c1O (centres unmarked) [compound 22, 2-(4-fluoro-phenyl)-4-[[1-(4-fluoro-phenyl)-5-hydroxy-3-methyl-1H-pyrazol-4-yl]-(2-hydroxy-phenyl)-methyl]-5-methyl-2,4-dihydro-pyrazol-3-one] | 2.9% |
| CC1=NN(c2cccc([N+](=O)[O-])c2)C(=O)C1Sc1nnnn1-c1ccccc1 (centres unmarked) [compound 13, 5-methyl-2-(3-nitro-phenyl)-4-(1-phenyl-1H-tetrazol-5-yl-sulfanil)-2,4-dihydro-pyrazol-3-one] | 74.66% |
| COC(=O)c1ccc(N2N=C(C)/C(=C/c3ccc(-c4ccc(S(N)(=O)=O)cc4)o3)C2=O)cc1 [compound 41, 4-{3-methyl-5-oxo-4-[5-(4-sulfamoyl-phenyl)-furan-2-yl-methylene]-4,5-dihydro-pyrazol-1-yl}-benzoic acid-methyl ester] | 37.81% |
| COc1ccc(/C=C2/C(=O)N(c3ccccc3)N=C2C)c(OC)c1O [compound 59, 4-(3-hydroxy-2,4-dimethoxy-benzylidene)-5-methyl-2-phenyl-2,4-dihydro-pyrazol-3-one] | 5.3% |
| CC1=NN(c2cccc(C(F)(F)F)c2)C(=O)/C1=C/C=C/c1ccccc1 [compound 33, 5-methyl-4-(3-phenyl-allylidene)-2-(3-trifluoromethyl-phenyl)-2,4-dihydro-pyrazol-3-one] | 80.08% |
| CC1=NN(c2ccccc2)C(=O)C1(N1CCOCC1)N1CCOCC1 [compound 26, 5-methyl-4,4-di-morpholin-4-yl-2-phenyl-2,4-dihydro-pyrazol-3-one] | 50.68% |
| CC1=NN(c2cccc(C(=O)O)c2)C(=O)/C1=C\c1ccc(N2CCC(Cl)=N2)cc1 [compound 36, 3-{4-[4-(3-chloro-4,5-dihydro-pyrazol-1-yl)-benzylidene]-3-methyl-5-oxo-4,5-dihydro-pyrazol-1-yl}-benzoic acid] | 26.37% |
| CC1=NN(c2ccc(C)cc2)C(=O)/C1=C/c1ccc(O)c(O)c1 [compound 44, 4-(3,4-dihydroxy-benzylidene)-5-methyl-2-p-toluyl-2,4-dihydro-pyrazol-3-one] | 66.19% |
| CC1=NN(c2ccccc2)C(=O)C1Sc1nc(-c2ccc(C)cc2)cs1 (centres unmarked) [compound 21, 5-methyl-2-phenyl-4-(4-p-toluyl-thiazole-2-yl-sulfanil)-2,4-dihydro-pyrazol-3-one] | 42.07% |
| CC1=NN(c2ccccc2Cl)C(=O)/C1=C/c1ccc(N(C)C)cc1 [compound 32, 2-(2-chloro-phenyl)-4-(4-dimethylamino-benzylidene)-5-methyl-2,4-dihydro-pyrazol-3-one] | 8.7% |
| CC1=NN(c2ccccc2)C(=O)C12Sc1ccccc1C2=O (centres unmarked) [compound 28, 3-methyl-1-phenyl-5-oxo-4-spiro-(3-oxo-2,3-dihydro-benzo[b]thiophen-2-yl)-4,5-dihydro-1H-pyrazol] | 22.83% |
